Measured values: BindingDB's records for patent US20250243196 (The Cleveland Clinic Foundation, 2025)

Target: Citron Rho-interacting kinase (Homo sapiens, UniProt O14578)
Assay: TR-FRET Based Assay
Excerpt: Not found

Chain of Citron Rho-interacting kinase (O14578 whole entry): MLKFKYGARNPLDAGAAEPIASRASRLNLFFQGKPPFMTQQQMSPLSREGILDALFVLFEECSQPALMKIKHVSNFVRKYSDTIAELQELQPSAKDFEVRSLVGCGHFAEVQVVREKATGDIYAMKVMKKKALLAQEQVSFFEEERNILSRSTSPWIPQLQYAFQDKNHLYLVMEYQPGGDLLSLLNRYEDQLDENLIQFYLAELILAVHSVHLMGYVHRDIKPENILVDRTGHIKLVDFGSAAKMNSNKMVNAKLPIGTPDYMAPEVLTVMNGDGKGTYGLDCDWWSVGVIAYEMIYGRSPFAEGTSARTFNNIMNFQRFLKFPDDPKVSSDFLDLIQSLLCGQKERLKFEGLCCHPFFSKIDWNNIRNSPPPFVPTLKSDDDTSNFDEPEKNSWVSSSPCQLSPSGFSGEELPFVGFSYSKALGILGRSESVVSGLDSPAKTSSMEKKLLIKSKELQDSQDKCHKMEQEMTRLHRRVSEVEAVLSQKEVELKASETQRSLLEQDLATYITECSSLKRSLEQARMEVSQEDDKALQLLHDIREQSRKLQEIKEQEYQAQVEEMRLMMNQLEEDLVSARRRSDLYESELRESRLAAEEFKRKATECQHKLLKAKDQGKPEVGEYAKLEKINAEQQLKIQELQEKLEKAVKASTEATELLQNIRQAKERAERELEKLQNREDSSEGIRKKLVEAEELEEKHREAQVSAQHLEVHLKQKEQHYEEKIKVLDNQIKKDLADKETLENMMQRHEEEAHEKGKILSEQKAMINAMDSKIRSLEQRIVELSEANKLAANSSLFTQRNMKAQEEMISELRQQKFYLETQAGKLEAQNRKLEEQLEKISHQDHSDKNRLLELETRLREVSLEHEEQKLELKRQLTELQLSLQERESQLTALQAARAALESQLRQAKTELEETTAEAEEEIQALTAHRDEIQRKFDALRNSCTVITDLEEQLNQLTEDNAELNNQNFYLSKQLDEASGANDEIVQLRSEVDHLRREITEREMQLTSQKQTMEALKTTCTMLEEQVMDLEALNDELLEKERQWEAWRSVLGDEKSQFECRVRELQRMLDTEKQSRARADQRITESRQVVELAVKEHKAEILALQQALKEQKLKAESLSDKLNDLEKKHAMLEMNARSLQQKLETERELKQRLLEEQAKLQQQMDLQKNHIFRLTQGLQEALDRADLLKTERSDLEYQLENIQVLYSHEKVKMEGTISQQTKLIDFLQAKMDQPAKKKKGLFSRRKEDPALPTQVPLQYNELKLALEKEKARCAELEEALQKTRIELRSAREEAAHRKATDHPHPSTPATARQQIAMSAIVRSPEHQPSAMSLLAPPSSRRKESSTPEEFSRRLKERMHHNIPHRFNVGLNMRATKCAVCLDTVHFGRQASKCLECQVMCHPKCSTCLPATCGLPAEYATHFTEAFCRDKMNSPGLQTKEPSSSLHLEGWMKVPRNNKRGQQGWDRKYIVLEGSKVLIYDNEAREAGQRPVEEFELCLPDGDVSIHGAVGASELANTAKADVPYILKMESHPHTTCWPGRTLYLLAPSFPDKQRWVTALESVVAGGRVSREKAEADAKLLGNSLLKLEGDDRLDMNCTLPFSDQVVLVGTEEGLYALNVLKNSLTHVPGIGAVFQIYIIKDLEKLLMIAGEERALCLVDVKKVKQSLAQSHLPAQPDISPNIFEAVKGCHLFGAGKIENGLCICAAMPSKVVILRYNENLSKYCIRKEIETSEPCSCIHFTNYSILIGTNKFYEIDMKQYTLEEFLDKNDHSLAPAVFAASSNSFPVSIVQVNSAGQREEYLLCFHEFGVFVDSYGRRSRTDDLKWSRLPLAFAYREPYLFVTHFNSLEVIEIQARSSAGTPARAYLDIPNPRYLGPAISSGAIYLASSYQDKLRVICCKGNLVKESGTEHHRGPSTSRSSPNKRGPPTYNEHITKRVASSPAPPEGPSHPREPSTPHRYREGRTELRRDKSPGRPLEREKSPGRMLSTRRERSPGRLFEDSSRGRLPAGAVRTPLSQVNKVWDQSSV

IC50	Structure (SMILES)
153 nM	NC(CC1CCOCC1)C(=O)Nc1ccc(-c2ccnc3[nH]ccc23)cc1 (stereo unspecified) [US20250243196, Compound F-120]
3000 nM	CNC(Cc1ccccc1)C(=O)Nc1ccc(-c2ccnc3[nH]ccc23)cc1 (stereo unspecified) [US20250243196, Compound F-121]
1500 nM	CN(C)C(Cc1ccccc1)C(=O)Nc1ccc(-c2ccnc3[nH]ccc23)cc1 (stereo unspecified) [US20250243196, Compound F-122]
1290 nM	NC(Cc1ccc(Cl)cc1)C(=O)Nc1ccc(-c2ccnc3[nH]ccc23)cc1 (stereo unspecified) [US20250243196, Compound F-123]
536 nM	NC(Cc1cccc(Cl)c1)C(=O)Nc1ccc(-c2ccnc3[nH]ccc23)cc1 (stereo unspecified) [US20250243196, Compound F-124]
1770 nM	NC(Cc1ccccc1Cl)C(=O)Nc1ccc(-c2ccnc3[nH]ccc23)cc1 (stereo unspecified) [US20250243196, Compound F-125]
